According to ChEMBL document CHEMBL5260845, “Flavone-based arylamides as potential anticancers: Design, synthesis and in vitro cell-based/cell-free evaluations” (2020):
The source made the active and inactive calls. The rule behind the calls is not given here.

Columns and labels:
[1] = test system: Hs-578T; assay: Antiproliferative activity against human Hs-578T cells assessed as inhibition of cell growth at 10 uM by SRB assay; type: functional, cell-based
[2] = test system: MOLT-4; assay: Antiproliferative activity against human MOLT-4 cells assessed as cell growth inhibition at 10 uM by SRB assay; type: functional, cell-based
[3] = test system: CCRF-CEM; assay: Antiproliferative activity against human CCRF-CEM cells assessed as cell growth inhibition at 10 uM by SRB assay; type: functional, cell-based
[4] = test system: HOP-92; assay: Antiproliferative activity against human HOP-92 cells assessed as cell growth inhibition at 10 uM by SRB assay; type: functional, cell-based
[5] = test system: NCI-H226; assay: Antiproliferative activity against human NCI-H226 cells assessed as cell growth inhibition at 10 uM by SRB assay; type: functional
[6] = test system: NCI-H23; assay: Antiproliferative activity against human NCI-H23 cells assessed as cell growth inhibition at 10 uM by SRB assay; type: functional
[7] = test system: NCI-H522; assay: Antiproliferative activity against human NCI-H522 cells assessed as cell growth inhibition at 10 uM by SRB assay; type: functional, cell-based
[8] = test system: DU-145; assay: Antiproliferative activity against human DU-145 cells assessed as inhibition of cell growth at 10 uM by SRB assay relative to control; type: functional
[9] = test system: RPMI-8226; assay: Antiproliferative activity against human RPMI-8226 cells assessed as cell growth inhibition at 10 uM by SRB assay; type: functional, cell-based
[10] = test system: SF-295; assay: Antiproliferative activity against human SF-295 cells assessed as cell growth inhibition at 10 uM by SRB assay; type: functional, cell-based
[11] = test system: K562; assay: Antiproliferative activity against human K562 cells assessed as cell growth inhibition at 10 uM by SRB assay; type: functional, cell-based
[12] = test system: PC-3; assay: Antiproliferative activity against human PC-3 cells assessed as inhibition of cell growth at 10 uM by SRB assay; type: functional, cell-based
[13] = test system: UO-31; assay: Antiproliferative activity against human UO-31 cells assessed as inhibition of cell growth at 10 uM by SRB assay relative to control; type: functional
[14] = test system: HL-60; assay: Antiproliferative activity against human HL-60 cells assessed as cell growth inhibition at 10 uM by SRB assay; type: functional, cell-based
[15] = test system: EKVX; assay: Antiproliferative activity against human EKVX cells assessed as cell growth inhibition at 10 uM by SRB assay; type: functional
[16] = test system: SR; assay: Antiproliferative activity against human SR cells assessed as cell growth inhibition at 10 uM by SRB assay; type: functional, cell-based
[17] = test system: SF-539; assay: Antiproliferative activity against temozolomide resistant human SF-539 cells assessed as cell growth inhibition at 10 uM by SRB assay; type: functional, cell-based
[18] = test system: SNB-75; assay: Antiproliferative activity against temozolomide resistant human SNB-75 cells assessed as cell growth inhibition at 10 uM by SRB assay; type: functional, cell-based
[19] = test system: RPMI-8226; assay: Antiproliferative activity against human RPMI-8226 cells assessed as cell growth inhibition at 10 uM by SRB assay relative to control; type: functional
[20] = test system: UACC-62; assay: Antiproliferative activity against human UACC-62 cells assessed as cell growth inhibition at 10 uM by SRB assay relative to control; type: functional
[21] = test system: SK-MEL-2; assay: Antiproliferative activity against human SK-MEL-2 cells assessed as cell growth inhibition at 10 uM by SRB assay relative to control; type: functional; details: Homo sapiens, SK-MEL-2, dose 10 µM
[22] = test system: MDA-MB-435; assay: Antiproliferative activity against human MDA-MB-435 cells assessed as cell growth inhibition at 10 uM by SRB assay; type: functional, cell-based
[23] = test system: LOX IMVI; assay: Antiproliferative activity against human LOX IMVI cells assessed as cell growth inhibition at 10 uM by SRB assay relative to control; type: functional
[24] = test system: SK-MEL-28; assay: Antiproliferative activity against human SK-MEL-28 cells assessed as cell growth inhibition at 10 uM by SRB assay; type: functional, cell-based
[25] = test system: SK-MEL-5; assay: Antiproliferative activity against human SK-MEL-5 cells assessed as cell growth inhibition at 10 uM by SRB assay; type: functional, cell-based
[26] = test system: UACC-257; assay: Antiproliferative activity against human UACC-257 cells assessed as cell growth inhibition at 10 uM by SRB assay relative to control; type: functional
[27] = test system: M14; assay: Antiproliferative activity against human M14 cells assessed as cell growth inhibition at 10 uM by SRB assay relative to control; type: functional
[28] = test system: Malme-3M; assay: Antiproliferative activity against human Malme-3M cells assessed as cell growth inhibition at 10 uM by SRB assay; type: functional, cell-based

COc1cc2oc(-c3ccc(NC(=O)c4ccccc4Br)cc3)cc(=O)c2c(OC)c1OC
inhibition [1]: Active
inhibition [2]: Active
inhibition [3]: Active
inhibition [4]: Active
inhibition at 10 µM [5]: < 50%
inhibition at 10 µM [6]: < 50%
inhibition [7]: Active
inhibition at 10 µM [8]: 29.6%
inhibition [9]: Active
inhibition [10]: Active
inhibition [11]: Active
inhibition [12]: Active
inhibition [13]: Active
inhibition [14]: Active
inhibition at 10 µM [15]: < 50%
inhibition [16]: Active

COc1cc2oc(-c3cccc(C(=O)Nc4ccc(C)cc4)c3)cc(=O)c2c(O)c1OC
inhibition [17]: Active
inhibition [18]: Active
inhibition at 10 µM [19]: 82.6%

CN(C)/N=N/c1[nH]cnc1C(N)=O [DACARBAZINE]
inhibition at 10 µM [20]: 25.6%
inhibition at 10 µM [21]: 15%
inhibition [22]: inactive
inhibition at 10 µM [23]: 49.3%
inhibition [24]: inactive
inhibition [25]: inactive
inhibition at 10 µM [26]: 15%
inhibition at 10 µM [27]: 36.5%
inhibition [28]: inactive
